Source: ChEMBL document CHEMBL1144019 (Bioorg Med Chem, 2008)
In brackets after ≈: the same amount, converted by molar mass.

Tests used:
[1] = test system: Staphylococcus aureus; assay: Antibacterial activity against Staphylococcus aureus Smith by standard serial agar dilution method; format: functional
[2] = test system: Streptococcus pneumoniae; assay: Antibacterial activity against penicillin-resistant Streptococcus pneumoniae SR-16675 by standard serial agar dilution method; format: functional
[3] = test system: Escherichia coli; assay: Antibacterial activity against Escherichia coli SR-21003 by standard serial agar dilution method; format: functional
[4] = test system: Escherichia coli; assay: Antibacterial activity against Toho 2 producing Escherichia coli by standard serial agar dilution method; format: functional
[5] = test system: Pseudomonas aeruginosa; assay: Antibacterial activity against Pseudomonas aeruginosa SR24 by standard serial agar dilution method; format: functional
[6] = test system: Pseudomonas aeruginosa; assay: Antibacterial activity against AmpC hyperproducing Pseudomonas aeruginosa SR24-12 by standard serial agar dilution method; format: functional
[7] = test system: Pseudomonas aeruginosa; assay: Antibacterial activity against Pseudomonas aeruginosa SR-5393 by standard serial agar dilution method; format: functional
[8] = test system: Pseudomonas aeruginosa; assay: Antibacterial activity against imipenem-resistant Pseudomonas aeruginosa SR-6554 by standard serial agar dilution method; format: functional
[9] = test system: Haemophilus influenzae; assay: Antibacterial activity against Haemophilus influenzae ATCC 49766 by standard serial agar dilution method; format: functional
[10] = test system: Haemophilus influenzae; assay: Antibacterial activity against beta-lactamase negative ampicillin-resistant Haemophilus influenzae SR-11435 by standard serial agar dilution method; format: functional
[11] = test system: Moraxella catarrhalis; assay: Antibacterial activity against Moraxella catarrhalis ATCC 43617 by standard serial agar dilution method; format: functional
[12] = Stability in presence of AmpC beta-lactamase; format: ADME
[13] = test system: Enterobacter cloacae; assay: Antibacterial activity against Enterobacter cloacae ATCC 13047 by standard serial agar dilution method; format: functional
[14] = test system: Enterobacter cloacae; assay: Antibacterial activity against AmpC producing Enterobacter cloacae SR-4321 by standard serial agar dilution method; format: functional
[15] = test system: Pseudomonas aeruginosa; assay: Antibacterial activity against Pseudomonas aeruginosa SR-24722 isolate by standard serial agar dilution method; format: functional
[16] = test system: Pseudomonas aeruginosa; assay: Antibacterial activity against Pseudomonas aeruginosa SR-24736 isolate by standard serial agar dilution method; format: functional
[17] = test system: Pseudomonas aeruginosa; assay: Antibacterial activity against Pseudomonas aeruginosa SR-24765 isolate by standard serial agar dilution method; format: functional
[18] = test system: Pseudomonas aeruginosa; assay: Antibacterial activity against Pseudomonas aeruginosa SR-24770 isolate by standard serial agar dilution method; format: functional
[19] = test system: Pseudomonas aeruginosa; assay: Antibacterial activity against Pseudomonas aeruginosa SR-24797 isolate by standard serial agar dilution method; format: functional
[20] = test system: Pseudomonas aeruginosa; assay: Antibacterial activity against Pseudomonas aeruginosa SR-24816 isolate by standard serial agar dilution method; format: functional
[21] = test system: Pseudomonas aeruginosa; assay: Antibacterial activity in CAZ-susceptible Pseudomonas aeruginosa SR24 infected ICR mouse after 7 days; format: functional; details: 168 h
[22] = test system: Pseudomonas aeruginosa; assay: Antibacterial activity in CAZ-resistant Pseudomonas aeruginosa SR24-12 infected ICR mouse after 7 days; format: functional; details: 168 h

Row | SMILES | MIC [1] | MIC [2] | MIC [3] | MIC [4] | MIC [5] | MIC [6] | MIC [7] | MIC [8] | MIC [9] | MIC [10] | MIC [11] | Stability [12] | MIC [13] | MIC [14] | MIC [15] | MIC [16] | MIC [17] | MIC [18] | MIC [19] | MIC [20] | other results
1 | CO/N=C(\C(=O)N[C@@H]1C(=O)N2C(C(=O)[O-])=C(C[N+]3(C)CCCC3)CS[C@H]12)c1csc(N)n1 | 2 µg/mL (≈ 4.16 µM) | 2 µg/mL (≈ 4.16 µM) | 0.063 µg/mL (≈ 0.131 µM) | 4 µg/mL (≈ 8.32 µM) | 0.5 µg/mL (≈ 1.04 µM) | 32 µg/mL (≈ 66.6 µM) | 4 µg/mL (≈ 8.32 µM) | 64 µg/mL (≈ 133 µM) | 0.032 µg/mL (≈ 0.0666 µM) | 0.5 µg/mL (≈ 1.04 µM) | 0.5 µg/mL (≈ 1.04 µM) | 12.9% |  |  |  |  |  |  |  |  | 
2 | C[C@H](O/N=C(\C(=O)N[C@@H]1C(=O)N2C(C(=O)[O-])=C(C[n+]3cccc4c3ccn4C)CS[C@H]12)c1nc(N)sc1Cl)C(=O)O | 1 µg/mL (≈ 1.61 µM) | 2 µg/mL (≈ 3.23 µM) | 0.125 µg/mL (≈ 0.202 µM) | 1 µg/mL (≈ 1.61 µM) | 0.5 µg/mL (≈ 0.806 µM) | 4 µg/mL (≈ 6.45 µM) | 2 µg/mL (≈ 3.23 µM) | 16 µg/mL (≈ 25.8 µM) | 0.016 µg/mL (≈ 0.0258 µM) | 0.032 µg/mL (≈ 0.0516 µM) | 0.016 µg/mL (≈ 0.0258 µM) |  | 0.25 µg/mL (≈ 0.403 µM) | 1 µg/mL (≈ 1.61 µM) |  |  |  |  |  |  | 
3 | CNCCNc1cc[n+](CC2=C(C(=O)[O-])N3C(=O)[C@@H](NC(=O)/C(=N\O[C@@H](C)C(=O)O)c4nc(N)sc4Cl)[C@H]3SC2)cc1 | 4 µg/mL (≈ 6.26 µM) | 4 µg/mL (≈ 6.26 µM) | 0.5 µg/mL (≈ 0.782 µM) | 4 µg/mL (≈ 6.26 µM) | 0.5 µg/mL (≈ 0.782 µM) | 4 µg/mL (≈ 6.26 µM) | 2 µg/mL (≈ 3.13 µM) | 16 µg/mL (≈ 25 µM) | 0.125 µg/mL (≈ 0.196 µM) | 0.25 µg/mL (≈ 0.391 µM) | 0.032 µg/mL (≈ 0.0501 µM) | 80.3% | 0.5 µg/mL (≈ 0.782 µM) | 4 µg/mL (≈ 6.26 µM) |  |  |  |  |  |  | 
4 | CNCCCn1ccc2c1ccc[n+]2CC1=C(C(=O)[O-])N2C(=O)[C@@H](NC(=O)/C(=N\O[C@@H](C)C(=O)O)c3nc(N)sc3Cl)[C@H]2SC1 | 2 µg/mL (≈ 2.95 µM) | 4 µg/mL (≈ 5.91 µM) | 0.5 µg/mL (≈ 0.738 µM) | 2 µg/mL (≈ 2.95 µM) | 1 µg/mL (≈ 1.48 µM) | 4 µg/mL (≈ 5.91 µM) | 2 µg/mL (≈ 2.95 µM) | 8 µg/mL (≈ 11.8 µM) | 0.032 µg/mL (≈ 0.0473 µM) | 0.063 µg/mL (≈ 0.093 µM) | 0.016 µg/mL (≈ 0.0236 µM) | 78.4% | 0.5 µg/mL (≈ 0.738 µM) | 2 µg/mL (≈ 2.95 µM) | 8 µg/mL (≈ 11.8 µM) | 8 µg/mL (≈ 11.8 µM) | 8 µg/mL (≈ 11.8 µM) | 8 µg/mL (≈ 11.8 µM) | 8 µg/mL (≈ 11.8 µM) | 4 µg/mL (≈ 5.91 µM) | 
5 | CNCCn1ccc2c1ccc[n+]2CC1=C(C(=O)[O-])N2C(=O)[C@@H](NC(=O)/C(=N\O[C@@H](C)C(=O)O)c3nc(N)sc3Cl)[C@H]2SC1 | 2 µg/mL (≈ 3.02 µM) | 4 µg/mL (≈ 6.03 µM) | 0.5 µg/mL (≈ 0.754 µM) | 2 µg/mL (≈ 3.02 µM) | 1 µg/mL (≈ 1.51 µM) | 4 µg/mL (≈ 6.03 µM) | 2 µg/mL (≈ 3.02 µM) | 8 µg/mL (≈ 12.1 µM) | 0.032 µg/mL (≈ 0.0483 µM) | 0.125 µg/mL (≈ 0.188 µM) | 0.032 µg/mL (≈ 0.0483 µM) |  | 0.5 µg/mL (≈ 0.754 µM) | 2 µg/mL (≈ 3.02 µM) |  |  |  |  |  |  | 
6 | CNCCCn1c(N)nc2c1ccc[n+]2CC1=C(C(=O)[O-])N2C(=O)[C@@H](NC(=O)/C(=N\O[C@@H](C)C(=O)O)c3nc(N)sc3Cl)[C@H]2SC1 | 2 µg/mL (≈ 2.89 µM) | 2 µg/mL (≈ 2.89 µM) | 0.25 µg/mL (≈ 0.361 µM) | 2 µg/mL (≈ 2.89 µM) | 0.5 µg/mL (≈ 0.721 µM) | 4 µg/mL (≈ 5.77 µM) | 2 µg/mL (≈ 2.89 µM) | 8 µg/mL (≈ 11.5 µM) | 0.032 µg/mL (≈ 0.0462 µM) | 0.063 µg/mL (≈ 0.0909 µM) | 0.016 µg/mL (≈ 0.0231 µM) | 90.2% | 0.5 µg/mL (≈ 0.721 µM) | 2 µg/mL (≈ 2.89 µM) | 4 µg/mL (≈ 5.77 µM) | 2 µg/mL (≈ 2.89 µM) | 4 µg/mL (≈ 5.77 µM) | 4 µg/mL (≈ 5.77 µM) | 4 µg/mL (≈ 5.77 µM) | 2 µg/mL (≈ 2.89 µM) | ED50 [21]: 1.33 mg/kg; ED50 [22]: 4.69 mg/kg
7 | CC(C)(O/N=C(\C(=O)N[C@@H]1C(=O)N2C(C(=O)[O-])=C(C[n+]3ccccc3)CS[C@H]12)c1csc(N)n1)C(=O)O [CEFTAZIDIME] | 8 µg/mL (≈ 14.6 µM) | 8 µg/mL (≈ 14.6 µM) | 0.25 µg/mL (≈ 0.457 µM) | 1 µg/mL (≈ 1.83 µM) | 0.5 µg/mL (≈ 0.915 µM) | 64 µg/mL (≈ 117 µM) | 2 µg/mL (≈ 3.66 µM) | 32 µg/mL (≈ 58.5 µM) | 0.063 µg/mL (≈ 0.115 µM) | 0.125 µg/mL (≈ 0.229 µM) | 0.063 µg/mL (≈ 0.115 µM) | 18% | 8 µg/mL (≈ 14.6 µM) | 64 µg/mL (≈ 117 µM) | 64 µg/mL (≈ 117 µM) | 128 µg/mL (≈ 234 µM) | 128 µg/mL (≈ 234 µM) | 64 µg/mL (≈ 117 µM) | 64 µg/mL (≈ 117 µM) | 64 µg/mL (≈ 117 µM) | ED50 [21]: 2.83 mg/kg; ED50 [22]: > 128 mg/kg
